Laboratory results as given in patent US4568693A, “N-Naphthoylglycine derivatives” (Ayerst, McKenna & Harrison, Inc., priority 1981, dated 1986).

What was measured:
aldose reductase [1] = conditions: literature; cited from earlier work
aldose reductase [2] = biological target: T1, aldose reductase (Bos taurus, UniProt P16116); experiment: in vitro aldose reductase inhibition (modified Hayman and Kinoshita procedure); format: biochemical, bovine; conditions: for inhibition at 10 µM: 10^-5 molar, read-out: % Inhibition at Different Molar Concentration (in vitro), 10^-5; for inhibition at 1 µM: 10^-6 molar, read-out: % Inhibition at Different Molar Concentration (in vitro), 10^-6; for inhibition at 0.1 µM: 10^-7 molar, read-out: % Inhibition at Different Molar Concentration (in vitro), 10^-7
T1 construct: the preparation of the enzyme from bovine lens; from tissue; host or cells: bovine lens
Description: In the present case the procedure of Hayman and Kinoshita is modified in that the final chromatography step is omitted in the preparation of the enzyme from bovine lens.

[3] = system: accumulation of dulcitol in the lenses; experiment: galactosemic rats, dulcitol accumulation in the lens; format: in vivo, rat (Sprague-Dawley); conditions: 4 days, vs untreated galactosemic rats
Description: The aldose reductase inhibiting property of the compounds of this invention and the utilization of the compounds in preventing, diminishing and alleviating diabetic complications are demonstrable in experiments using galactosemic rats, see Dvornik et al., cited above. Such experiments are exemplified hereinbelow after the listing of the following general comments pertaining to these experiments:
(a) Four or more groups of six male rats, 50-70 g, Sprague-Dawley strain, were used. The first group, the control group, was fed a mixture of laboratory chow (rodent laboratory chow, Purina) and glucose at 20% (w/w %) concentration. The untreated galactosemic group was fed a similar diet in which galactose is substituted for glucose. The third group was fed a diet prepared by mixing a given amount of the test compound with the galactose containing diet. The concentration of galactose in the diet of the treated groups was the same as that for the untreated galactosemic group.
(b) After four days, the animals were killed by decapitation. The eyeballs were removed and punctured with a razor blade; the freed lenses were rolled gently on filter paper and weighed. The sciatic nerves were dissected as completely as possible and weighed. Both tissues were frozen and can be kept up to two weeks before being analyzed for dulcitol.
(c) The polyol determination was performed by a modification of the procedure of M. Kraml and L. Cosyns, Clin. Biochem., 2, 373 (1969). Only two minor reagent changes were made: (a) The rinsing mixture was an aqueous 5% (w/v) trichloroacetic acid solution and (b) the stock solution was prepared by dissolving 25 mg of dulcitol in 100 ml of an aqueous trichloroacetic acid solution. [N.B.: For each experiment the average value found in the tissue from rats fed the glucose diet was subtracted from the individual values found in the corresponding rat tissue to obtain the amount of polyol accumulated].
The figures under L and N represent the percentage decrease of dulcitol accumulation in the tissues of the lens and sciatic nerve, respectively, for treated rats as compared to untreated rats.

O=C1NC(=O)[C@@]2(CCOc3ccc(F)cc32)N1 [sorbinil, (S)-6-Fluoro-2,3-dihydrospiro(4H-1-benzopyran-4,4'-imidazolidine)-2',5'-dione]
inhibition of aldose reductase (result in words) (aldose reductase [1]): aldose reductase inhibiting properties

O=C(O)CN1C(=O)c2cccc3cccc(c23)C1=O [1,3-Dioxo-1H-benz[de]isoquinoline-2(3H)-acetic acid]
inhibition of aldose reductase (result in words) (aldose reductase [1]): effective inhibitor of aldose reductase

CN(CC(=O)O)C(=S)c1cccc2c(Br)cccc12 [Example 32, N-[(5-Bromo-1-naphthalenyl)thioxomethyl]-N-methylglycine]
inhibition at 10 µM (aldose reductase [2]): 93% | inhibition at 1 µM (aldose reductase [2]): 87% | inhibition at 0.1 µM (aldose reductase [2]): 47% | percentage decrease of dulcitol accumulation, lens (L) ([3]; 62 mg/kg/day in diet): 14% | percentage decrease of dulcitol accumulation, lens (L) ([3]; 121 mg/kg/day in diet): 20% | percentage decrease of dulcitol accumulation, lens (L) ([3]; 189 mg/kg/day in diet): 24%

CN(CC(=O)O)C(=S)c1cccc2c(C(F)(F)F)cccc12 [Example 53b, N-[[(5-trifluoromethyl)-1-naphthalenyl]thioxomethyl]-N-methylglycine]
inhibition at 10 µM (aldose reductase [2]): 93% | inhibition at 1 µM (aldose reductase [2]): 84% | inhibition at 0.1 µM (aldose reductase [2]): 33% | percentage decrease of dulcitol accumulation, lens (L) ([3]; 11 mg/kg/day in diet): 2%

COc1c(Cl)cc(C(=S)N(C)CC(=O)O)c2ccccc12 [Example 45, N-[(3-chloro-4-methoxy-1-naphthalenyl)thioxomethyl]-N-methylglycine]
inhibition at 10 µM (aldose reductase [2]): 85% | inhibition at 1 µM (aldose reductase [2]): 78% | inhibition at 0.1 µM (aldose reductase [2]): 33% | percentage decrease of dulcitol accumulation, lens (L) ([3]; 163 mg/kg/day in diet): 15%

CN(CC(=O)O)C(=S)c1cccc2c(Cl)cccc12 [Example 40, N-[(5-chloro-1-naphthalenyl)thioxomethyl]-N-methylglycine]
inhibition at 10 µM (aldose reductase [2]): 91% | inhibition at 1 µM (aldose reductase [2]): 83% | inhibition at 0.1 µM (aldose reductase [2]): 40% | percentage decrease of dulcitol accumulation, lens (L) ([3]; 156 mg/kg/day in diet): 34%

COC(=O)CN(C)C(=S)c1cccc2c(C(F)(F)F)c(OC)ccc12 [Example 23, N-[[5-(trifluoromethyl)-6-methoxy-1-naphthalenyl]thioxomethyl]-N-methylglycine methyl ester]
inhibition at 10 µM (aldose reductase [2]): 9% | percentage decrease of dulcitol accumulation, lens (L) ([3]; 11 mg/kg/day in diet): 10%
